Data published in patent US20040138239A1, “Compositions and methods for targeting cerebral circulation and treatment of headache” (priority 2004, published 2004).

Legend:
headache = assay: Inventors' observation: topical NSAID formulations in treatment of a headache; format: in vivo, human; settings: applied to tender spot or area superficial to carotid, temporal and/or vertebral artery
Description: Especially preferred compositions include a xanthine derivative in a concentration of about 4% (wt) to 70% (wt) and ketoprofen in a concentration of about 0.5% (wt) to 50% (wt). With respect to the xanthine derivative, the same considerations as described above apply. Furthermore, such particularly preferred compositions may be formulated in a lecithin-containing formulation or a pluronic-lecithin-organogel formulation (supra). It should be especially recognized, that compositions including a xanthine derivative or an NSAID have generally been described in the art. However, the inventors observed that formulations including an NSAID other than Ketoprofen generally fail to provide relief in treatment of a headache, when topically applied to a person (either to a tender spot, or to an area superficial to a carotid artery, a temporal artery and/or a vertebral artery). It is therefore a surprising result that Ketoprofen is the only NSAID effective in treatment of a headache when used in protocols according to the inventive subject matter (see also examples). While not wishing to be bound by a particular hypothesis or theory, the inventors contemplate that the effect of Ketoprofen may be at least in part mediated by a muscle-relaxant effect rather than via a suppressive effect in inflammation.

fever = settings: oral delivery; cited from earlier work

Row | SMILES | relief in treatment of a headache when topically applied (headache) | time to achieve sufficient plasma concentration to lower the fever (fever)
1 | CC(C(=O)O)c1cccc(C(=O)c2ccccc2)c1 (centres unmarked) [Ketoprofen, 2-(meta-benzoylphenyl)pro-pionic acid] | effective | –
2 | CC(=O)Nc1ccc(O)cc1 [Acetaminophen] | – | at least 20 minutes
